IC50 data for one molecule are collected here from PMC3459575 (Clinical Interventions in Aging, 2012).

One assay addresses T1, 5α-reductase type 2 (Homo sapiens, UniProt P31213).
T1 sequence (P31213 1-254): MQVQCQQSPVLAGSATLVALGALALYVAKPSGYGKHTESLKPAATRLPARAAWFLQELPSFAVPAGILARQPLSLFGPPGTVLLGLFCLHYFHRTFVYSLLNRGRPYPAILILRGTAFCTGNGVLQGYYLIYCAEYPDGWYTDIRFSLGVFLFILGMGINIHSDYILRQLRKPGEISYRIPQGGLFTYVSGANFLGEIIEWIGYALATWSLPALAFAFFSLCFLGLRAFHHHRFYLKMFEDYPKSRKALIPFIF
The format is cell-based.

The target of a further assay is T2, 5α-reductase type 1 (Homo sapiens, UniProt P18405).
T2 sequence (P18405 1-259): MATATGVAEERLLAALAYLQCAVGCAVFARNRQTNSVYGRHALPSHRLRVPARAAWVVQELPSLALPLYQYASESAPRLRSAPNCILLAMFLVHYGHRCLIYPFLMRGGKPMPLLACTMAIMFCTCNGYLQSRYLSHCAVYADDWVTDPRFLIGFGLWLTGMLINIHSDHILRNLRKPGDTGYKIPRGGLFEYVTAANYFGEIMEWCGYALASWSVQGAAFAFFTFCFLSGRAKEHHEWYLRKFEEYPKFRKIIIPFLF
The format is cell-based.

Consider `CC(C)(C)NC(=O)[C@H]1CC[C@H]2[C@@H]3CC[C@H]4NC(=O)C=C[C@]4(C)[C@H]3CC[C@]12C` [finasteride], for which the figures for the IC50 at 5α-reductase type 2 and against 5α-reductase type 1 were about 100 nM and about 800 nM, respectively.
